The values below are quoted from earlier work in PMC10329699, “Pharmacokinetics, biodistribution and toxicology of novel cell-penetrating peptides” (Scientific Reports, 2023).

The conditions of data set [1]: literature values for comparison. From the text:
Considering their smaller size (up to 30 amino acids in length), cationic and/or amphipathic CPPs have a greater potential to penetrate the BBB than other transport systems. […] For the sake of comparison, a control IgG, an IgG binding ...

Read-outs that look alike come from different tables or passages of the source.

For the molecule TAT, where the note is “in vitro at 37 °C in human serum”, the “half-life (stability in human serum)” value was 8.8 h.

Turning to `OC[C@H]1OC(O)[C@H](O)[C@@H](O)[C@@H]1O` (stereo partly drawn) [glucose], the “Clup (brain uptake coefficient), comparison values” in data set [1] was “≈ 1 µl g^−1 s^−1”.

As to penetratin, under “human”, the “half-life (stability in human serum)” value is 1.2 h.
